Assay results: patent US10766899B2, “Methods for preparing substituted imidazo[4,5-b]pyrazines” (Cytokinetics, Inc., priority 2006, dated 2020)

Test system: SKM MF
Assay: SKM MF AC1.4: ATPase of skeletal sarcomeric proteins (actin, tropomyosin, troponin complex, myosin), PK/LDH coupled enzyme system
Assay type: biochemical
Settings: screen at pCa=6.5; † mean value, ‡ median value
Experimental: For example, test compounds can be assayed in a highly parallel fashion by using multiwell plates by placing the compounds either individually in wells or testing them in mixtures. Assay components including the target protein complex, coupling enzymes and substrates, and ATP can then be added to the wells and the absorbance or fluorescence of each well of the plate can be measured with a plate reader.
In some embodiments, the method uses a 384 well plate format and a 25 μL reaction volume. A pyruvate kinase/lactate dehydrogenase coupled enzyme system (Huang T G and Hackney D D. (1994) J Biol Chem 269(23):16493-501) can be used to measure the rate of ATP hydrolysis in each well. As will be appreciated by those in the art, the assay components are added in buffers and reagents. The incubation periods can be optimized to give adequate detection signals over the background. The assay can be done in real time giving the kinetics of ATP hydrolysis which increases the signal to noise ratio of the assay.
Actin was purified by first preparing an ether powder of cardiac muscle (Zot H G and Potter J D. (1981) Preparative Biochemistry 11:381-395) as described below. Subsequently, actin was cycled between the filamentous and soluble state through rounds of centrifugation and dialysis (Spudich J A and Watt S. (1971) J. Biol. Chem. 246:4866-4871). It was stored in the filamentous state at 4° C.
Tropomyosin was extracted from the ether powder and separated from the other proteins based on pH dependent precipitations followed by successive ammonium sulfate cuts at 53% and 65% (Smillie L B. (1981) Methods Enzymol 85 Pt B:234-41). The troponins were isolated as an intact complex of TnC, TnT, and TnI. Ether powder is extracted in a high salt buffer. Successive ammonium sulfate cuts of 30% and 45% were done; the precipitate was solubilized by dialysis into a low salt buffer and then further purified on a DEAE Toyopearl column with a 25-350 mM KCl gradient.
Just prior to screening, the actin, tropomyosin, and troponin complex are mixed together in the desired ratio (e.g., 7:1:1) to achieve maximal calcium regulation of the actin filament. The screen is conducted at a pCa=6.5. This calcium concentration is in the physiological range during muscle contraction.
To measure the generation of ADP during the reaction, a pyruvate kinase/lactate dehydrogenase/NADH coupled enzyme system (PK/LDH) is added to the actin. The myosin is kept separately. The plates are read in real time so that kinetic curves are obtained. These compounds are in DMSO and were already spotted onto the bottoms of 384 well plates at 10 to 40 μg/ml final concentration.
• 1. Obtain ˜1000 g skeletal muscle, such as rabbit skeletal muscle. • 2. Grind twice; extract with 2 L solution A for 15 min while stirring; add 4 L cold H2O, filter through gauze; dilute with cold H2O to ionic strength of 0.04, (about 10-fold); let settle for 3 h; collect precipitate at 7,000 rpm in GSA rotor for 15 min. • 3. Disperse pellet in 220 ml solution B; dialyze overnight against 6 L solution C; slowly add ˜400 ml equal volume cold distilled H2O; stir for 30 min; centrifuge at 10,000 rpm for 10 min in GSA rotor. • 4. Centrifuge supernatant at 19,000 rpm for 1 h. • 5. Dilute supernatant to ionic strength of 0.04 (˜8-fold); let myosin settle overnight; collect about 5-6 L fluffy myosin precipitate by centrifuging at 10,000 rpm for 10 min in GSA rotor. • 6. Resuspend pellet in minimal volume of solution G; dialyze overnight against 2 L solution D; centrifuge at 19,000 rpm for 2 h, in cellulose nitrate tubes; puncture tubes and separate myosin from fat and insoluble pellet. • 7. Dilute supernatant to 5-10 mg/ml and dialyze against solution E extensively, load onto DEAE-sephadex column. • 8. […]

| Compound | SKM MF AC1.4 |
| --- | --- |
| CCC(CC)n1c(O)nc2nc(Br)cnc21 [5-bromo-1-(pentan-3-yl)-1H-imidazo[4,5-b]pyrazin-2-ol] | 11.5 µM |
| C[C@@H](CN1CCOCC1)n1c(O)nc2ncc(Br)nc21 [(S)-6-bromo-1-(1-morpholinopropan-2-yl)-1H-imidazo[4,5-b]pyrazin-2-ol] | >49 µM |
| C[C@H](c1ccccc1)n1c(O)nc2ncc(Br)nc21 [(R)-6-bromo-1-(1-phenylethyl)-1H-imidazo[4,5-b]pyrazin-2-ol] | 2.4 µM |
| 1-(ethylpropyl)-6-{2-[1-(ethylpropyl)-2-hydroxyimidazo[4,5-e]pyrazin-6-yl]ethynyl}imidazo[4,5-b]pyrazin-2-ol | 19.32 µM |
| CCC(CC)n1c(O)nc2nc3ccccc3nc21 [1-(pentan-3-yl)-1H-imidazo[4,5-b]quinoxalin-2-ol] | 19.8 µM |
| CCc1cnc2nc(O)n([C@@H](C)c3ccccc3)c2n1 [(S)-1-(1-phenylethyl)-6-ethyl-1H-imidazo[4,5-b]pyrazin-2-ol] | 17.4 µM |
| CCC(CC)n1c(O)nc2ncc(SC)nc21 [6-(methylthio)-1-(pentan-3-yl)-1H-imidazo[4,5-b]pyrazin-2-ol] | 0.4 µM |
| C#Cc1cnc2nc(O)n([C@H](CC)CN3CCOCC3)c2n1 [1-[(1R)-1-(morpholin-4-ylmethyl)propyl]-6-ethynylimidazo[4,5-b]pyrazin-2-ol] | 0.13 µM |
| Oc1nc2ncc(Br)nc2n1C1CCCCC1 [6-bromo-1-cyclohexyl-1H-imidazo[4,5-b]pyrazin-2-ol] | 10.4 µM |
| CCC(CN1CCN(S(C)(=O)=O)CC1)n1c(O)nc2ncc(Br)nc21 (stereo not drawn) [6-bromo-1-(1-(4-(methylsulfonyl)piperazin-1-yl)butan-2-yl)-1H-imidazo[4,5-b]pyrazin-2-ol] | 3.2^† μM |
| C/C=C\c1cnc2nc(O)n([C@@H](C)c3ccccc3)c2n1 [(S,Z)-1-(1-phenylethyl)-6-(prop-1-enyl)-1H-imidazo[4,5-b]pyrazin-2-ol] | 1.0 µM |
| CC(C)n1c(O)nc2ncc(Br)nc21 [6-bromo-1-isopropyl-1H-imidazo[4,5-b]pyrazin-2-ol] | 6.0 µM |
| CCC(CN(C)C)n1c(O)nc2ncc(Br)nc21 (stereo not drawn) [6-bromo-1-(1-(dimethylamino)butan-2-yl)-1H-imidazo[4,5-b]pyrazin-2-ol] | 43.8 µM |
| C[C@@H](c1ccccc1)n1c(O)nc2ncc(C3=CCCCC3)nc21 [(S)-6-cyclohexenyl-1-(1-phenylethyl)-1H-imidazo[4,5-b]pyrazin-2-ol] | 31.0 µM |
| CCC(CC)n1c(O)nc2ncc(Br)nc21 [6-bromo-1-(pentan-3-yl)-1H-imidazo[4,5-b]pyrazin-2-ol] | 0.25 µM |
| CCC(CC)n1c(O)nc2ncc(Cl)nc21 [6-chloro-1-(ethylpropyl)imidazo[4,5-b]pyrazin-2-ol] | 0.7 µM |
| CCC/C=C\Cc1cnc2nc(O)n([C@@H](C)c3ccccc3)c2n1 [(S,Z)-6-(hex-2-enyl)-1-(1-phenylethyl)-1H-imidazo[4,5-b]pyrazin-2-ol] | 3.1 µM |

Second part, the compound after the results:

| SKM MF AC1.4 | Compound |
| --- | --- |
| 0.6 µM | 1-(ethylpropyl)-6-(1-methylvinyl)imidazo[4,5-b]pyrazin-2-ol |
| 6.7 µM | CSc1cnc2nc(O)n(C(C)C)c2n1 [1-isopropyl-6-(methylthio)-1H-imidazo[4,5-b]pyrazin-2-ol] |
| 2.3 µM | C=Cc1cnc2nc(O)n(C(CC)CC)c2n1 [1-(ethylpropyl)-6-vinylimidazo[4,5-b]pyrazin-2-ol] |
| >49 µM | CCC(CN1CCOCC1)n1c(O)nc2nccnc21 (stereo not drawn) [1-(1-morpholinobutan-2-yl)-1H-imidazo[4,5-b]pyrazin-2-ol] |
| 1.5 µM | CC[C@@H](C)n1c(O)nc2ncc(Br)nc21 [(R)-6-bromo-1-sec-butyl-1H-imidazo[4,5-b]pyrazin-2-ol] |
| 5.2^‡ μM | C[C@H](CN1CCOCC1)n1c(O)nc2ncc(Br)nc21 [(R)-6-bromo-1-(1-morpholinopropan-2-yl)-1H-imidazo[4,5-b]pyrazin-2-ol] |
| 2.2^‡ μM | CCC(CC)n1c(O)nc2ncc(OC)nc21 [6-methoxy-1-(pentan-3-yl)-1H-imidazo[4,5-b]pyrazin-2-ol] |
| >49 µM | CCC(CC)n1c(O)nc2ncc(O)nc21 [1-(pentan-3-yl)-1H-imidazo[4,5-b]pyrazine-2,6-diol] |
| 1.1 µM | CC[C@H](CO)n1c(O)nc2ncc(Br)nc21 [(R)-6-bromo-1-(1-hydroxybutan-2-yl)-1H-imidazo[4,5-b]pyrazin-2-ol] |
| 22.6 µM | CSc1cnc2nc(O)n(Cc3ccccc3)c2n1 [1-benzyl-6-(methylthio)-1H-imidazo[4,5-b]pyrazin-2-ol] |
| 1.1 µM | CSc1cnc2nc(O)n([C@@H](C)c3ccccc3)c2n1 [(S)-6-(methylthio)-1-(1-phenylethyl)-1H-imidazo[4,5-b]pyrazin-2-ol] |
| >49 µM | CC[C@@H](CN1CCOCC1)n1c(O)nc2ncc(Br)nc21 [(S)-6-bromo-1-(1-morpholinobutan-2-yl)-1H-imidazo[4,5-b]pyrazin-2-ol] |
| 6.0 µM | C/C=C\c1cnc2nc(O)n(C3CCCCC3)c2n1 [(Z)-1-cyclohexyl-6-(prop-1-enyl)-1H-imidazo[4,5-b]pyrazin-2-ol] |
| 1.1 µM | CCC(CN)n1c(O)nc2ncc(Br)nc21 (stereo not drawn) [1-(1-aminobutan-2-yl)-6-bromo-1H-imidazo[4,5-b]pyrazin-2-ol] |

Same assay, conditions: screen at pCa=6.5; † mean value, ‡ median value; listed as 1-((1R)-1-methyl-2-morpholin-4-ylethyl)-6-bromoimidazo[4,5-b]pyrazin-2-ol

| Compound | SKM MF AC1.4 [µM] |
| --- | --- |
| C[C@H](CN1CCOCC1)n1c(O)nc2ncc(Br)nc21 [(R)-6-bromo-1-(1-morpholinopropan-2-yl)-1H-imidazo[4,5-b]pyrazin-2-ol] | 5.19 |

Same assay, conditions: screen at pCa=6.5; † mean value, ‡ median value; listed as 1-(ethylpropyl)-6-methoxyimidazo[4,5-b]pyrazin-2-ol

| Compound | SKM MF AC1.4 [µM] |
| --- | --- |
| CCC(CC)n1c(O)nc2ncc(OC)nc21 [6-methoxy-1-(pentan-3-yl)-1H-imidazo[4,5-b]pyrazin-2-ol] | 2.20 |

Same assay, conditions: screen at pCa=6.5; † mean value, ‡ median value; listed as 6-methoxy-1-(pentan-3-yl)-1H-imidazo[4,5-b]pyrazin-2(3H)-one

| Compound | SKM MF AC1.4 |
| --- | --- |
| CCC(CC)n1c(O)nc2ncc(OC)nc21 [6-methoxy-1-(pentan-3-yl)-1H-imidazo[4,5-b]pyrazin-2-ol] | 2.2^‡ μM |

Same assay, conditions: screen at pCa=6.5; † mean value, ‡ median value; listed as (R)-6-bromo-1-(1-morpholinopropan-2-yl)-1H-imidazo[4,5-b]pyrazin-2(3H)-one

| Compound | SKM MF AC1.4 |
| --- | --- |
| C[C@H](CN1CCOCC1)n1c(O)nc2ncc(Br)nc21 [(R)-6-bromo-1-(1-morpholinopropan-2-yl)-1H-imidazo[4,5-b]pyrazin-2-ol] | 5.2^‡ μM |

Test system: rats with induced experimental autoimmune myasthenia gravis (EAMG)
Assay: Validation of EAMG model (neostigmine), grip strength
Assay type: in vivo, Sprague-Dawley rats
Settings: 0.2 mg/kg intraperitoneally, 5 minutes after treatment
Experimental: Female Sprague-Dawley rats (200-300 g) were purchased from Charles River Laboratories and given a minimum 72 hours acclimation period. Experimental autoimmune Myasthenia Gravis (EAMG) was induced by a single intra-peritoneal injection of 500 μg/kg of AChRα1/3/5 antibody (SC-58604, Santa Cruz Biotechnology, CA, USA). Fore- and hind-limb grip measurements were acquired in triplicate with a 5 kg Dual Sensor Grip Meter (Columbus Instruments, Ohio, USA) as described in Example 1. Baseline body weight and fore- and hind-grip strength of animals was measured before inducing EAMG.
Selected rats were divided into vehicle and compound treated groups. Neostigmine (an acetylcholinesterase inhibitor that is used clinically for the assessment and treatment of myasthenia gravis) was administered to test animals intraperitoneally at 0.2 mg/kg. After dosing, rats were reassessed for grip strength at 5, 10 and 20 minutes.

| Compound | forelimb grip strength (FIG. 2) |
| --- | --- |
| CN(C)C(=O)Oc1cccc([N+](C)(C)C)c1 [neostigmine] | increased forelimb grip strength |
